From patent US11419803B2, “Skin darkening composition” (Conopco, Inc., priority 2017, dated 2022)

How the values were obtained:
[1] = test system: Neonatal foreskin primary human epidermal melanocytes; experiment: Melanin content assay; type: cell-based; conditions: 72 hours, compared to vehicle control = 100
Description: (§1) All test compounds were purchased from SIGMA-ALDRICH as powders. They were tested at various concentrations in cell culture (see below). Forskolin (SIGMA Cat. # F6886) was used as reference comparators, as they have been reported to increase melanin content. Neonatal foreskin primary human epidermal melanocytes were procured from Cascade Biologicals (labelled passage P0). Melanocytes were maintained in Medium 254CF (Cascade Cat. # M-254CF-500) supplemented with human melanocyte growth supplement (Cascade; Cat. # S-002-5), hereafter referred to as MGM. Cells were maintained at 37° C. in a humidified incubator with 5% CO2 atmosphere.
(§2) 50,000 cells were seeded in 24 well plate in MGM; after 24 hours, cultures were treated with various concentrations of the test materials and left undisturbed for a further period of 72 hours. Comparative vehicle controls of 0.25% (v/v) DMSO were also set up in parallel, simultaneously. At the end of the incubation period, cell viability was determined using the calcein method.
After calcein fluorescence readings were obtained, cells were drained and added fresh 125 μl of 1N NaOH (in 10% DMSO) per well. Cells were lysed by resuspension and incubation (60° C./1 hour.). Then this lysate was transferred to a fresh […] and measured OD405 nm in a TECAN M1000 plate reader (estimate of relative melanin content).
(§3) Calcein fluorescence values were ratio converted in 0 to 100 scale (% viability), with 100 representing the value of the 0.25% DMSO sample. % Melanin content was calculated as the ratio between OD405 nm value of any sample to that of DMSO reference sample.
Normalized melanin content value was then calculated as 100*(% Melanin Content)/(% Cellular viability).
The percentage Increase in melanin content was estimated as [(Normalized melanin content)−100]

[2] = test system: Neonatal foreskin primary human epidermal melanocytes; experiment: Cell viability, calcein method; type: cell-based
Description: as §1, §2
Briefly, cell culture spent media was removed and cells washed once with 0.4 ml of 1× PBS-Ca—Mg solution. Fresh 1 μM calcein-AM was added (0.2 ml/well), including to control wells without cells. Plates were covered with aluminium foil and incubated for 30 minutes. at 37° C. in the regular CO2 incubator. Calcein fluorescence was then measured (λmax 490 nm and λmax 520 nm) in TECAN® M1000 Infinite series plate reader.
as §3

Compound	% Melanin content ([1]; 10 micromolar)	% Melanin content ([1]; 15 micromolar)	% Melanin content ([1]; 20 micromolar)	% Melanin content ([1]; 25 micromolar)	% Viability ([2]; human, 72 h, 10 µM)	% Viability ([2]; human, 72 h, 15 µM)	% Viability ([2]; human, 72 h, 20 µM)	% Viability ([2]; human, 72 h, 25 µM)	% Melanin content ([1]; 6.25 micromolar)	% Melanin content ([1]; 12.5 micromolar)	% Viability ([2]; human, 72 h, 6.25 µM)	% Viability ([2]; human, 72 h, 12.5 µM)	% Viability ([2]; 10 micromolar, 72 hours, relative to 0.25% DMSO control = 100)	% Viability ([2]; 15 micromolar, 72 hours, relative to 0.25% DMSO control = 100)	% Viability ([2]; 20 micromolar, 72 hours, relative to 0.25% DMSO control = 100)	% Viability ([2]; 25 micromolar, 72 hours, relative to 0.25% DMSO control = 100)	% Melanin content ([1]; 5 micromolar)	% Viability ([2]; human, 72 h, 5 µM)
CCCCCCCCCCCOc1ccc(C(=O)O)cc1 [Example 5, 4-undecyloxybenzoic acid]	136%	146%	134%	120%	97%	100%	90%	79%	–	–	–	–	–	–	–	–	–	–
CCCCCCCc1ccc(C(=O)O)cc1 [Example 1, 4-heptyl benzoic acid]	–	–	–	113%	–	–	–	93%	124%	129%	102%	102%	–	–	–	–	–	–
CCCCCCCOc1ccc(C(=O)O)cc1 [Example 2, 4-heptyloxybenzoic acid]	117%	126%	129%	137%	–	–	–	–	–	–	–	–	94%	96%	95%	96%	–	–
CCCCCCCCOc1ccc(C(=O)O)cc1 [Example 3, 4-octyloxybenzoic acid]	127%	144%	127%	86%	101%	103%	100%	86%	–	–	–	–	–	–	–	–	–	–
CCCCCCCCCOc1ccc(C(=O)O)cc1 [Example 4, 4-nonyloxybenzoic acid]	129%	136%	130%	137%	109%	109%	103%	103%	–	–	–	–	–	–	–	–	126%	102%
